From article PMC4466525, “Design, Synthesis and Structure-Activity Relationship Studies of Novel Survivin Inhibitors with Potent Anti-Proliferative Properties” (PLoS ONE, 2015)
Read-outs that look alike come from different tables or passages of the source.

Key:
CYP1A = biological target: T1, CYP1A (Homo sapiens, UniProt P05177); test: Cytochrome P450 inhibition, CYP1A; assay type: in vitro ADME; details: probe phenacetin, substrate phenacetin, human liver microsomes 0.1 mg/mL, read-out: % inhibition of control values, CYP1A
T1 construct: tissue Eurofins Panlabs Inc. (contract research service) Study Number 100017964; host or cells: human liver microsomes
T1 sequence (P05177 2-516 limits assumed): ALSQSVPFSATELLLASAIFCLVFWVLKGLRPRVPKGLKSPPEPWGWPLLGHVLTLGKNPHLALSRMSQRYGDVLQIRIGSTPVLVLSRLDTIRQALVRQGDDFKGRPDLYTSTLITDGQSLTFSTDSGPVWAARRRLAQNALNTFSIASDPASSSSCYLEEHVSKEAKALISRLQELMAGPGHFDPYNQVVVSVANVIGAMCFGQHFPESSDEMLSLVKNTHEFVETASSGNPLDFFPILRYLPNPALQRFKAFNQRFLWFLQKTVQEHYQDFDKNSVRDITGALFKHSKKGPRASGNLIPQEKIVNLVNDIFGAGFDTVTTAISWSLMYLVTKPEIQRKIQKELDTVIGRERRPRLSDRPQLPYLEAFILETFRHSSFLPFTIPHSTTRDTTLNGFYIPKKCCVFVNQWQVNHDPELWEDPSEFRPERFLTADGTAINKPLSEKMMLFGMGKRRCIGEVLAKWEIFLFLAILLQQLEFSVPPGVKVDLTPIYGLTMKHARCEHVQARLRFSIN
Procedure: (§1) All these experiments were performed by a contract research service company, Eurofins Panlabs Inc. (Study Number 100017964). Aqueous solubility (μM) was determined using the shake-flask method by comparing the peak area of the principal peak in a calibration standard (200 μM) containing organic solvent (methanol/water, 60/40, v/v) with the peak area of the corresponding peak in a buffer sample. Metabolic stability study was carried out by incubating compound 4g with human liver microsomes. Metabolic stability which is expressed as percent of the parent compound remaining, was calculated by comparing the peak area of the compound at the time point relative to that at time-0. The half-life (T1/2) was estimated from the slope of the initial linear range of the logarithmic curve of compound remaining (%) vs. time. In the cytochrome P450 inhibition study, human liver microsomes (0.1 mg/mL) were incubated with different substrates and compound 4g for 10 minutes. After the incubation, peak areas corresponding to the metabolite of each substrate were recorded. The percent of control activity was then calculated by comparing the peak area obtained in the presence of compound 4g to that obtained in the absence of compound 4g. Subsequently, the percent inhibition was calculated by subtracting the percent control activity from 100.

CYP2C8 = biological target: T2, CYP2C8 (Homo sapiens, UniProt P10632); test: Cytochrome P450 inhibition, CYP2C8; assay type: in vitro ADME; details: probe paclitaxel, substrate paclitaxel, human liver microsomes 0.1 mg/mL, read-out: % inhibition of control values, CYP2C8
T2 construct: tissue Eurofins Panlabs Inc. (contract research service) Study Number 100017964; host or cells: human liver microsomes
T2 sequence (P10632 whole entry): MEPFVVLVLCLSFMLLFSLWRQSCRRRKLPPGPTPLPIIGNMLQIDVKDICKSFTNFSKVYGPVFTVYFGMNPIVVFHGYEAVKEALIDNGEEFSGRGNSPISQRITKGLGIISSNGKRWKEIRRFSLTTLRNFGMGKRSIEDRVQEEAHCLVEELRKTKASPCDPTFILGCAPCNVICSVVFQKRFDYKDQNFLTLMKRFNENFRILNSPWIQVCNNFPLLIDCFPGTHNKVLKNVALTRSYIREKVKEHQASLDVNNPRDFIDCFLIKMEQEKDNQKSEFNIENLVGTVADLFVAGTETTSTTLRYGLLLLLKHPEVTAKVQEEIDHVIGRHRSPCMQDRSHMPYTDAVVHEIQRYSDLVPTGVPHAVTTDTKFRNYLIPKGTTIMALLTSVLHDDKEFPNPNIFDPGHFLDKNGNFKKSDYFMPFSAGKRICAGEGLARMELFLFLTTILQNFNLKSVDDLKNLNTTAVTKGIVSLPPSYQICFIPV
Procedure: as §1

survivin [1] = biological target: T3, survivin (Homo sapiens, UniProt O15392); test: DARTS assay, survivin; assay type: binding; details: 20 μM, pronase-digested A375 or M14 cell lysates
T3 construct: endogenous in cells; host or cells: A375 cells
T3 sequence (O15392 whole entry): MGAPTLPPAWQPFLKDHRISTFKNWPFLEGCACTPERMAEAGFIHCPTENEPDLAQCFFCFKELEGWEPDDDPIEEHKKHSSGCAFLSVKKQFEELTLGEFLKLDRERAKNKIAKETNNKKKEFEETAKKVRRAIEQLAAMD
Procedure: Drug affinity responsive target stability (DARTS) assay was performed to identify the protein targets of UC-112 analogs in A375 or M14 cell lysates following the protocols described in the literature. Briefly, A375 or M14 lysates were prepared in non-denaturing M-PER lysis buffer (Thermo Fisher Scientific, Waltham, MA) with protease and phosphatase inhibitors. Then TNC (Tris, NaCl, CaCl2) buffer was added into cell lysates before the total protein concentration of lysate being determined by BCA protein assay kit (Thermo Fisher Scientific, Waltham, MA). The lysates were split into two groups: one group was added with compound of interest solution, the other group was added with same amount of vehicle (DMSO). The samples were mixed thoroughly and incubated at room temperature for 1 h. Then 10 mg/mL pronase stock solution was added into both compound treated or vehicle control groups to achieve the final dilution of 1:100, 1:300, 1:1000 and 1:3000. One aliquot of each group was kept as un-digested control. The proteolysis was performed at room temperature for 30 min before ice cold protease inhibitor stock being added into the mixture. Then SDS loading buffer was added into all the samples and heated to 70°C for 10 min. Finally, the results were analyzed by SDS-PAGE and immunoblotting.

CYP2C19 = biological target: T4, CYP2C19 (Homo sapiens, UniProt P33261); test: Cytochrome P450 inhibition, CYP2C19; assay type: in vitro ADME; details: probe omeprazole, substrate omeprazole, human liver microsomes 0.1 mg/mL, read-out: % inhibition of control values, CYP2C19
T4 construct: tissue Eurofins Panlabs Inc. (contract research service) Study Number 100017964; host or cells: human liver microsomes
T4 sequence (P33261 whole entry): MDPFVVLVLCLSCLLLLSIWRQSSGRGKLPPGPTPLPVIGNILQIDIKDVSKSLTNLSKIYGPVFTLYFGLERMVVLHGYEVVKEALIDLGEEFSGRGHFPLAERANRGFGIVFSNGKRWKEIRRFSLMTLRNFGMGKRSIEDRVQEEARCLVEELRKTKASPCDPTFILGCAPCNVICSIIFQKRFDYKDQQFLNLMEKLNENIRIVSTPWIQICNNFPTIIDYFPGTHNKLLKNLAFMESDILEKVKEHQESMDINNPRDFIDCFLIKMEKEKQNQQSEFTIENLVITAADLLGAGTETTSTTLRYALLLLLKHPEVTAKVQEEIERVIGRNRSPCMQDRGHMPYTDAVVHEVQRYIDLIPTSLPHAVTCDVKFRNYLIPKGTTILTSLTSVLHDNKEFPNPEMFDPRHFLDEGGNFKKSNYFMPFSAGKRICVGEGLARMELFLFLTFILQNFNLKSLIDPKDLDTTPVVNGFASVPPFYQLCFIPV
Procedure: as §1

NCI-60 cell lines = test: NCI-60 cell line screening (SRB), whole panel; assay type: cell-based, human
Procedure: Four compounds including the parental compound UC-112 were submitted to National Cancer Institute for its NCI-60 cell line screening, initially tested at one concentration (10 μM), and subsequently selected for full five concentration testing following the standard protocols disclosed by NCI [34]. In brief, cells were plated into 96 well micro-titer plates 24 h prior to the treatment of compound solution for 48 h, then the cell viability was read out through absorbance of sulforhodamine B (SRB) staining.

survivin [2] = biological target: T3, survivin; test: Western blotting of survivin level, A375 cells; assay type: cell-based
Procedure: Lysates of A375 cells treated by the compound solution for 24 h were used to determine the change of IAP protein levels through western blotting. Primary rabbit antibodies against survivin, XIAP, cIAP1, cIAP2, livin and GAPDH were purchased from Cell Signaling Technology, Inc. (Danvers, MA) and used according to manufacture instructions as reported previously. Protein lane intensities were quantified by ImageJ software (US National Institutes of Health, Bethesda, MD).

M14/LCC6MDR1 = test: Cell viability (MTS) anti-proliferative assay, multidrug-resistant M14/LCC6MDR1; assay type: cell-based, human
Procedure: (§2) The anti-proliferative effect of UC-112 and its analogs were tested in human melanoma (A375, M14 and M14/LCC6MDR1) and human prostate cancer (PC-3) cell lines. All the cell lines were purchased from ATCC (American Type Culture Collection, Manassas, VA). The cancer cells were cultured using the supplemented cell culture medium as described before at 37°C in a humidified atmosphere containing 5% CO2. 5000 cells in logarithm growing phase were seeded overnight into each well of a 96-well plate. Then the cells were continuously incubated with sequential diluted compound solution (10 nM to 100 μM, 100 μl per well) in cell culture medium.

CYP3A = test: Cytochrome P450 inhibition, CYP3A; assay type: in vitro ADME; details: human liver microsomes 0.1 mg/mL
Procedure: as §1

M14 = test: Cell viability (MTS) anti-proliferative assay, M14; assay type: cell-based; details: M14 human melanoma, 48 h treatment, n = 4, read-out: IC50 values ± SEM, M14
Procedure: as §2

SMILES: CC(C)c1ccc(COCc2cc(CN3CCCC3)c(O)c3ncccc23)cc1 [4g, 5-(((4-isopropylbenzyl)oxy)methyl)-7-(pyrrolidin-1-ylmethyl)quinolin-8-ol]
- inhibition at 10 min (CYP1A): 18%
- inhibition at 10 min (CYP2C8): 21%
- Protease susceptibility of survivin (DARTS) (survivin [1]): significantly reduced
- inhibition at 10 min (CYP2C19): 45%
- GI50 (NCI-60 cell lines; Homo sapiens, five dose testing, 48 h, SRB, read-out: Average GI50 over all cancer cell lines in the NCI-60 panel): 500 nM
- Activity in NCI-60 one-concentration screening (NCI-60 cell lines; one concentration, 10 μM): good activity
- Reduction of survivin level, A375 (survivin [2]; 300 nM, 24 h, A375 cells, lane density by ImageJ): over 50%
- IC50 values for survivin inhibition (survivin [2]; estimated from western blotting, A375 and PC-3 cells): low nanomolar range
- Effect on survivin level, A375 (survivin [2]; gradient increasing dose, 24 h, A375 cells): dose-dependently suppressed survivin level
- IC50 (M14/LCC6MDR1; Homo sapiens, 48 h, multidrug-resistant M14/LCC6MDR1 melanoma, 48 h treatment, MTS, n = 4, read-out: IC50 values ± SEM, M14/LCC6MDR1): 1800 ± 400 nM
- Resistance Index (M14/LCC6MDR1; IC50 on M14/LCC6MDR1 divided by IC50 on parental M14): 2.3
- inhibition at 10 min (CYP3A; probe midazolam, substrate midazolam, read-out: % inhibition of control values, CYP3A (midazolam)): 3%
- inhibition at 10 min (CYP3A; probe testosterone, substrate testosterone, read-out: % inhibition of control values, CYP3A (testosterone)): 29%
- IC50 (M14): 800 ± 200 nM
